Assay [1] relates to protein kinase C (PKC) family of proteins. Description: In vitro phosphorylation (kinase) assay with HEK 293 whole cell extract. To be noted: for phosphorylation of peptide by extract of staurosporine-treated cells: extract from 293 cells treated with 20 nM staurosporine (PKC inhibitor); for phosphorylation of peptide by whole cell extract: extract from untreated 293 cells. It is filed as biochemical.

For assay [2], the system named is p53-driven p21 promoter in K562 (p53-/-) cells. Description: p21 luciferase reporter assay in K562 (p53-/-) cells. Type of assay: cell-based. The settings on record: 10 μM peptide; for activation of p53 (p21 promoter driven luciferase activity): K562 (p53-/-) co-transfected with p21 luciferase reporter and p53 constructs, 12 h. How it is done:
TAT-SMAR1 WT peptide (P44) modulates p53 function: To examine whether P44 peptide could alone activate p53^−, luciferase reporter assays were performed following treatment of cells with the chimeric TAT-SMAR1 derived peptides. HEK 293 (p53^+/+) cells were transfected with p21 expression plasmid having luciferase reporter gene and K562 (p53^−/−) cells were co-transfected with p21 luciferase reporter and p53 constructs. […] (FIG. 2A, bar 3) and about 1.5 fold activation in p53^−/− cell line (FIG. 2B, bar 4).
FIG. 2. P44 peptide activates the p53-driven p21 gene expression in reporter assays. p21 promoter activity was checked in both HEK 293 (p53^+/+) (A) and K562 (P53^−/−) cells (B). Cells were transfected with either pG13 […] reporter plasmid, a p53-driven p21 promoter, in HEK 293 cells or cotransfected with wild-type (wt) p53 in K562 cells. After 24 h post-transfection, cells were treated for 12 h with 10 μM concentration of various TAT-SMAR1 chimeric peptides. Y axis represents the fold luciferase activity (mean±SD of three independent experiments).
Luciferase reporter assay: HEK 293 (p53^+/+) and K562 (p53^−/−) cells were grown in DMEM supplemented with 10% FBS in the presence of 5% CO2 at 37° C., a total number of 1×10^6, cells were plated on a 6-well plate. After 24 h, cells were transiently transfected using lipofectamine-2000 with either 1 μg of p21 expression plasmid having luciferase reporter gene or 5 μg p21 luciferase along with wt p53 construct in K562 cell line. Two micrograms of pRL-CMV (Renilla luciferase reporter plasmid) was included in all transfections to normalize the transfection efficiency. Thirty six hours post-transfection, cells were treated with 10 μM of either P44 peptide or its various mutants. The cells were harvested 12 h post-treatment, washed with PBS and lysed in 1× Passive lysis buffer (Promega). After three freeze-thaw cycles, cells were spun at 10,000 rpm at 4° C. for 20 min. The supernatants were collected and protein concentrations were estimated spectrophotometrically using Bradford reagent as (BioRad, CA). According to the manufacturer's instructions, luciferase activity was assessed using the dual luciferase assay reporter kit (Promega). The luciferase activity was measured by using Fluoroskan Ascent Luminometer (Labsystems). For all the luciferase assays, the data shown are the mean+SD of three independent experiments.
(A reporter such as luciferase makes a cellular process visible.)

The test system of assay [3] is cdc2 (tyrosine 15 phosphorylation, pcdc-2). Description: Western blotting for pcdc-2 in peptide-treated HEK 293 cells. It is filed as cell-based. The settings on record: for pcdc-2 level: HEK 293, 10 μM peptide, 12 h (FIG. 4A); for pcdc-2 level compared to untreated cells: HEK 293, peptide-treated lysates (FIG. 3C, 3D). Here is the method: (§1) P44 peptide controls the activity of cell cycle regulatory proteins: The minimal dose of P44 peptide that was functionally effective in activating p53 was evaluated by incubating HEK 293 cells with varying concentrations of P44 peptide (1-100 μM) (FIG. 3A) and after 12 h of incubation, protein lysates were prepared and processed for immunoblotting with total p53 (DO-1) and p53 ser-15 phospho-specific antibodies. […] However, there was a 4.5-fold increase in the expression of phosphorylated p53 (pSerine-15 p53) in P44 peptide-treated cells (FIG. 3A, lanes 2-6). To exclude the possibility that p53 activation is an effect of the protein transduction domain of HIV-1 TAT protein, similar set of experiment was performed using TAT-PTD peptide alone (consisting of only the 11-mer TAT-sequence). […] This observation reconfirmed that the RS domain (288-350 aa) of SMAR1 could exclusively activate p53 by mediating its phosphorylation specifically at serine-15 residue. Serine-15 phosphorylation of p53 is associated with its increased transcription efficiency, decreased affinity for MDM2, and its increased nuclear retention. One of the target genes activated by p53 is p21, an inhibitor of a subset of the cyclin-dependent kinases including cdc-2 (Sherr, C. J., and Roberts, J. M. (1999) Genes Dev. 13, 1501-1512). To evaluate the significance of peptide-mediated p53 activation, P44 peptide-treated lysates were further checked for tyrosine 15 phosphorylation of cdc2. […] HEK 293 cells were treated with SM peptide and checked for p53 as well as pcdc-2 levels.
(§2) Serine 347 residue of SMAR1: critical for mediating the effects of full-length SMAR1: Once it was established that the serine motif (SSSSYS) plays a pivotal role in SMAR1-mediated p53 activation, it got necessary to identify the serine residue within this motif that might be necessary in mediating these effects. To identify the critical serine residue within P44 peptide, various point-mutant peptides were custom synthesized, that varied with respect to the position of serine residue that was mutated (Table 1). To evaluate the functionality of mutant chimeric TAT-SMAR1 peptides [PS347A, PS348A, PS349A, PS350A and RS mutant (SM)] in comparison to the TAT-SMAR1 WT peptide (P44), HEK 293 cells were treated with 10 μM concentration of either of the peptides and protein lysates were prepared after 12 h incubation period. The lysates were then processed for immunoblotting with pSer-15 p53 and pcdc-2 antibodies. […] However, this was not the case with other mutated peptides. When the alanine was replaced back to serine at the 347 residue (FIG. 4A, lanes 3-5), the functionality of the peptide was restored as observed with increase in pcdc-2 levels. […] However, in case of SM (where serine residues from 347-350 were replaced by alanines) treated cells (FIG. 4A, lane 7), there was no difference in the pSer-15 p53 as well as pcdc-2 levels compared to either untreated or PS347A treated cells (FIG. 4A, lanes 1 and 2, respectively).
(§3) FIG. 3. P44 peptide activates p53-mediated cell cycle pathway. A, HEK 293 cells were seeded at a density of 5×10^5 and after 24 h, was incubated with increasing concentrations of the TAT-SMAR1 WT (P44) peptide. Protein lysates were prepared and then immunoblotted with antibodies to total p53, phospho serine-15. B, The same set of experiment was repeated with TAT PTD peptide representing the PTD carrier sequence alone and immunoblotted with phospho serine-15, in comparison of P44 treated cells. C, The status of phospho cdc-2 was further analyzed in P44 peptide treated cells. Total […] was used as an internal control. D, The same set of experiments were again repeated using TAT-SMAR1 RS mutant (SM) peptide and whole cell lysates were probed for phospho p53 serine-15 and pcdc-2 antibodies. […] was used as a loading control.
(§4) FIG. 4. Serine 347 residue of SMAR1 mediates p53 activation and stabilization. […]

In assay [4] the target is T1, p53 (serine-15 phosphorylation) (Homo sapiens, UniProt P04637).
T1 construct: HEK 293 (p53^+/+) cells; endogenous in cells; host or cells: HEK 293
T1 sequence (P04637 whole entry): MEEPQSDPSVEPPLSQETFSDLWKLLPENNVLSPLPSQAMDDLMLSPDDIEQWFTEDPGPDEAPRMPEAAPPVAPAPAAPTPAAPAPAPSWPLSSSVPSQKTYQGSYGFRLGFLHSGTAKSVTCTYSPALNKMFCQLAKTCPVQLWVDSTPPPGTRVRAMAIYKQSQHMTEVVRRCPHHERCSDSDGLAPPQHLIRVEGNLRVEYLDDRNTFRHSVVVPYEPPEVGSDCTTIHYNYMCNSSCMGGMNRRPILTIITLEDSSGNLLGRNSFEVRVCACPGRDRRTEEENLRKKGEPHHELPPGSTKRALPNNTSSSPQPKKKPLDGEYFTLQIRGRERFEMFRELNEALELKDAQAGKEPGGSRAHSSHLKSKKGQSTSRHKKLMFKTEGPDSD
Description: Western blotting for total p53 and phospho serine-15 p53 in peptide-treated HEK 293 cells. Type of assay: cell-based. The settings on record: for p53 activation (pSer-15 p53 level): HEK 293, 10 μM peptide, 12 h (FIG. 4A). How it is done: as §1, §2, §3, §4

Turning to “YGRKKRRQRRRTAWRRKQRGQSLAVKSFSRRTPSSSSYSASETM [P44, 33 mer SMAR1 peptide (residues 324-357) conjugated with 11-mer TAT-PTD]”, in assay [1], the “phosphorylation of peptide by extract of staurosporine-treated cells” value is recorded as “failed to phosphorylate” and the “phosphorylation of peptide by whole cell extract” value is listed as “gets phosphorylated”. For the same sequence, the “increased γ-P32 ATP incorporation in comparison to mutant counterpart (SM)” value in assay [1] (whole cell extract from untreated 293 cells) was in the range of 6 to 7 fold. The “p21 promoter luciferase activity with peptide alone” value in assay [2] (K562 (p53-/-) cells without p53 construct) is “no activity”. In assay [2], the “activation of p53 (p21 promoter driven luciferase activity)” value (from here on “activation of p53”) is given as “about 1.5 fold”. In addition, in assay [3], the pcdc-2 level entry is given as “increase” and the “pcdc-2 level compared to untreated cells” value was “upregulation”. In assay [4] (HEK 293, P44 1-100 μM, 12 h), the “increase in expression of phosphorylated p53 (pSerine-15 p53)” value is on record as 4.5 fold and the “total p53 expression (DO-1)” value is reported as “slight increase”.
As for “YGRKKRRQRRRTAWRRKQRGQSLAVKSFSRRTPSSSAYSASETM [PS350A, point mutant of P44, serine 350 replaced by alanine]”, the “phosphorylation of peptide by extract of staurosporine-treated cells” value in assay [1] is “failed to phosphorylate”. The “activation of p53” value in assay [2] is on record as “No significant alteration”. Also, in assay [3], the pcdc-2 level result is “increase”. The “p53 activation (pSer-15 p53 level)” value in assay [4] is recorded as “No significant decrease”.
The matching figures for “YGRKKRRQRRRTAWRRKQRGQSLAVKSFSRRTPSASSYSASETM [PS348A, point mutant of P44, serine 348 replaced by alanine]”: “failed to phosphorylate”, “No significant alteration”, “increase” and “No significant decrease”.
With “YGRKKRRQRRRTAWRRKQRGQSLAVKSFSRRTPAAAAYSASETM [SM, P44 mutant where serine residues from 347-350 were replaced by alanines]”, in assay [1], the “phosphorylation of peptide by extract of staurosporine-treated cells” value is reported as “no difference”; the “phosphorylation of peptide by whole cell extract” value was “not and further reduction in its phosphorylation compared to PS347A peptide”. In addition, the “activation of p53” value in assay [2] is “complete loss”. Further, in assay [3], the pcdc-2 level entry is reported as “no difference” and the “pcdc-2 level compared to untreated cells” value was “no increase”. Besides, the “p53 activation (pSer-15 p53 level)” value in assay [4] was “no difference”. The “expression level of p53 phospho-serine 15 compared to untreated cells” value in assay [4] (HEK 293, SM peptide-treated lysates (FIG. 3D)) was “no increase”.
On to “YGRKKRRQRRRTAWRRKQRGQSLAVKSFSRRTPSSASYSASETM [PS349A, point mutant of P44, serine 349 replaced by alanine]”, for which the “phosphorylation of peptide by extract of staurosporine-treated cells” value in assay [1] was “failed to phosphorylate”. Further, in assay [2], the “activation of p53” value is listed as “No significant alteration”. The pcdc-2 level entry in assay [3] was “increase”. Also, the “p53 activation (pSer-15 p53 level)” value in assay [4] was “No significant decrease”.
As for “YGRKKRRQRRRTAWRRKQRGQSLAVKSFSRRTPASSSYSASETM [PS347A, point mutant of P44, serine 347 replaced by alanine]”, in assay [1], the “phosphorylation of peptide by extract of staurosporine-treated cells” value was “no difference” and the “phosphorylation of peptide by whole cell extract” value is listed as “abolished”. For the same sequence, the “activation of p53” value in assay [2] is reported as “complete loss”. For the same sequence, the pcdc-2 level result in assay [3] was “decreased”. For the same sequence, the “p53 activation (pSer-15 p53 level)” value in assay [4] was “no significant activation”.

(Values after patent US8420100B2, “Tumor suppressor activating polypeptides and uses thereof” (Department of Biotechnology, priority 2006, dated 2013).)
